Experimental data reported in patent publication US8530493B2, “Indolopyridines as Eg5 kinesin modulators” (4SC AG, priority 2006, dated 2013).

Each compound was assayed on RKO p21 uninduced (proliferating) colon adenocarcinoma cells (assay: Alamar Blue cell viability assay, RKO p21 uninduced (proliferating)). Details: Homo sapiens, Table B3, anti-proliferative/cytotoxic activity, 72 hours, read-out: −log EC50 RKO p21 uninduced (proliferating) (converted).
Format: cell-based
Outline: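 RKO p21 or p27 subclones grown without Ponasterone A, i.e. proliferating, exposed 24 h after seeding to semi-log compound dilutions in DMEM/10% FCS (1% DMSO controls) for 72 h at 37° C. Alamar Blue fluorescence (544/590 nm) read relative to untreated cells; EC50 from dose-response curves, given as −log EC50 (mol/l).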

| Compound | EC50 |
| --- | --- |
| CCN(C)CCCN1C(=O)N2[C@H](c3cccc(O)c3)c3[nH]c4ccc(Br)cc4c3C[C@@]2(C)C1=O (racemic) [Example 216, (3aSR,10RS)-6-Bromo-2-[3-(ethyl-methyl-amino)-propyl]-10-(3-hydroxy-phenyl)-3a-methyl-3a,4,9,10-tetrahydro-2,9,10a-triaza-cyclopenta[b]fluorene-1,3-dione] | ≤ 39.8 nM |
| C=CCN(C)CCCN1C(=O)N2[C@H](c3cccc(O)c3)c3[nH]c4ccc(OCC)cc4c3C[C@@]2(C)C1=O (racemic) [Example 196, (3aSR,10RS)-2-[3-(Allyl-methyl-amino)-propyl]-6-ethoxy-10-(3-hydroyx-phenyl)-3a-methyl-3a,4,9,10-tetrahydro-2,9,10a-triaza-cyclopenta[b]fluorene-1,3-dione] | 39.8 to 251 nM |
| COc1cc2c3c([nH]c2cc1F)[C@@H](c1cccc(O)c1)N1C(=O)N(CCCN(C)C(C)C)C(=O)[C@]1(C)C3 (racemic) [Example 319, (3aSR,10RS)-7-Fluoro-10-(3-hydroxy-phenyl)-2-[3-(isopropyl-methyl-amino)-propyl]-6-methoxy-3a-methyl-3a,4,9,10-tetrahydro-2,9,10a-triaza-cyclopenta[b]fluorene-1,3-dione] | 39.8 to 251 nM |
| C[C@@]12Cc3c([nH]c4ccc(OC(F)F)cc34)[C@@H](c3cccc(O)c3)N1C(=O)N(CCN1CCCC1)C2=O (racemic) [Example 279, (3aSR,10RS)-6-(1,1-Difluoro-methoxy)-10-(3-hydroxy-phenyl)-3a-methyl-2-(2-pyrrolidin-1-yl-ethyl)-3a,4,9,10-tetrahydro-2,9,10a-triaza-cyclopenta[b]fluorene-1,3-dione] | ≤ 39.8 nM |
| CCNCCN1C(=O)N2[C@H](c3cccc(O)c3)c3[nH]c4cc(F)c(OC)cc4c3C[C@@]2(C)C1=O (racemic) [Example 249, (3aSR,10RS)-2-(2-Ethylamino-ethyl)-7-fluoro-10-(3-hydroxy-phenyl)-6-methoxy-3a-methyl-3a,4,9,10-tetrahydro-2,9,10a-triaza-cyclopenta[b]fluorene-1,3-dione] | ≤ 39.8 nM |
| CCOc1ccc2[nH]c3c(c2c1)C[C@@]1(C)C(=O)N(CCCNCCOC)C(=O)N1[C@@H]3c1cccc(O)c1 (racemic) [Example 189, (3aSR,10RS)-6-Ethoxy-10-(3-hydroyx-phenyl)-2-[3-(2-methoxy-ethylamino)-propyl]-3a-methyl-3a,4,9,10-tetrahydro-2,9,10a-triaza-cyclopenta[b]fluorene-1,3-dione] | 39.8 to 251 nM |
| C[C@@]12Cc3c([nH]c4ccc(Br)cc34)[C@@H](c3cccc(O)c3)N1C(=O)N(CCCNCCO)C2=O (racemic) [Example 235, (3aSR,10RS)-6-Bromo-2-[3-(2-hydroxy-ethylamino)-propyl]-10-(3-hydroxy-phenyl)-3a-methyl-3a,4,9,10-tetrahydro-2,9,10a-triaza-cyclopenta[b]fluorene-1,3-dione] | ≤ 39.8 nM |
| COc1cc2c3c([nH]c2cc1F)[C@@H](c1cccc(O)c1)N1C(=O)N(CCNC(C)(C)C)C(=O)[C@]1(C)C3 (racemic) [Example 256, (3aSR,10RS)-2-(2-tert-Butylamino-ethyl)-7-fluoro-10-(3-hydroxy-phenyl)-6-methoxy-3a-methyl-3a,4,9,10-tetrahydro-2,9,10a-triaza-cyclopenta[b]fluorene-1,3-dione] | ≤ 39.8 nM |
| CCN(CCOC)CCN1C(=O)N2[C@H](c3cccc(O)c3)c3[nH]c4ccc(Br)cc4c3C[C@@]2(C)C1=O (racemic) [Example 380, (3aSR,10RS)-6-Bromo-2-{2-[ethyl-(2-methoxy-ethyl)-amino]-ethyl}-10-(3-hydroxy-phenyl)-3a-methyl-3a,4,9,10-tetrahydro-2,9,10a-triaza-cyclopenta[b]fluorene-1,3-dione] | 39.8 to 251 nM |
| C[C@@]12Cc3c([nH]c4ccc(Br)cc34)[C@@H](c3cccc(O)c3)N1C(=O)N(CCN1CCCCC1)C2=O (racemic) [Example 390, (3aSR,10RS)-6-Bromo-10-(3-hydroxy-phenyl)-3a-methyl-2-(2-piperidin-1-yl-ethyl)-3a,4,9,10-tetrahydro-2,9,10a-triaza-cyclopenta[b]fluorene-1,3-dione] | ≤ 39.8 nM |
| CCOc1ccc2[nH]c3c(c2c1)C[C@@]1(C)C(=O)N(CCCN2CCCCC2)C(=O)N1[C@@H]3c1cccc(O)c1 (racemic) [Example 223, (3aSR,10RS)-6-Ethoxy-10-(3-hydroxy-phenyl)-3a-methyl-2-(3-piperidin-1-yl-propyl)-3a,4,9,10-tetrahydro-2,9,10a-triaza-cyclopenta[b]fluorene-1,3-dione] | 39.8 to 251 nM |
| COCCNCCCN1C(=O)N2[C@H](c3cccc(O)c3)c3[nH]c4cc(F)c(Cl)cc4c3C[C@@]2(C)C1=O (racemic) [Example 462, (3aSR,10RS)-6-Chloro-7-fluoro-10-(3-hydroxy-phenyl)-2-[3-(2-methoxy-ethylamino)-propyl]-3a-methyl-3a,4,9,10-tetrahydro-2,9,10a-triaza-cyclopenta[b]fluorene-1,3-dione] | ≤ 39.8 nM |
| C[C@@]12Cc3c([nH]c4ccc(OC(F)F)cc34)[C@@H](c3cccc(O)c3)N1C(=O)N(CCCNC1CC1)C2=O (racemic) [Example 202, (3aSR,10RS)-2-(3-Cyclopropylamino-propyl)-6-(1,1-difluoro-methoxy)-10-(3-hydroxy-phenyl)-3a-methyl-3a,4,9,10-tetrahydro-2,9,10a-triaza-cyclopenta[b]fluorene-1,3-dione] | 39.8 to 251 nM |
| CCN(C)CCN1C(=O)N2[C@H](c3cccc(O)c3)c3[nH]c4cc(F)c(Cl)cc4c3C[C@@]2(C)C1=O (racemic) [Example 347, (3aSR,10RS)-6-Chloro-2-[2-(ethyl-methyl-amino)-ethyl]-7-fluoro-10-(3-hydroxy-phenyl)-3a-methyl-3a,4,9,10-tetrahydro-2,9,10a-triaza-cyclopenta[b]fluorene-1,3-dione] | ≤ 39.8 nM |
| CCN(CCO)CCCN1C(=O)N2[C@H](c3cccc(O)c3)c3[nH]c4ccc(Cl)cc4c3C[C@@]2(C)C1=O (racemic) [Example 168, (3aSR,10RS)-6-Chloro-2-{3-[ethyl-(2-hydroxy-ethyl)-amino]-propyl}-10-(3-hydroxy-phenyl)-3a-methyl-3a,4,9,10-tetrahydro-2,9,10a-triaza-cyclopenta[b]fluorene-1,3-dione] | ≤ 39.8 nM |
| CC1CCN(CCCN2C(=O)N3[C@H](c4cccc(O)c4)c4[nH]c5ccc(OC(F)F)cc5c4C[C@@]3(C)C2=O)CC1 (racemic) [Example 244, (3aSR,10RS)-6-(1,1-Difluoro-methoxy)-10-(3-hydroxy-phenyl)-3a-methyl-2-[3-(4-methyl-piperidin-1-yl)-propyl]-3a,4,9,10-tetrahydro-2,9,10a-triaza-cyclopenta[b]fluorene-1,3-dione] | 39.8 to 251 nM |
| C[C@@]12Cc3c([nH]c4ccc(OC(F)F)cc34)[C@@H](c3cccc(O)c3)N1C(=O)N(CCCN1CCCCC1)C2=O (racemic) [Example 239, (3aSR,10RS)-6-(1,1-Difluoro-methoxy)-10-(3-hydroxy-phenyl)-3a-methyl-2-(3-piperidin-1-yl-propyl)-3a,4,9,10-tetrahydro-2,9,10a-triaza-cyclopenta[b]fluorene-1,3-dione] | ≤ 39.8 nM |
| C[C@@]12Cc3c([nH]c4ccc(OC(F)F)cc34)[C@@H](c3cccc(O)c3)N1C(=O)N(CCCN1CC=CC1)C2=O (racemic) [Example 238, (3aSR,10RS)-6-(1,1-Difluoro-methoxy)-2-[3-(2,5-dihydro-pyrrol-1-yl)-propyl]-10-(3-hydroxy-phenyl)-3a-methyl-3a,4,9,10-tetrahydro-2,9,10a-triaza-cyclopenta[b]fluorene-1,3-dione] | ≤ 39.8 nM |
| CN(C)CCCN1C(=O)N2[C@H](c3cccc(O)c3)c3[nH]c4cc(F)c(Cl)cc4c3C[C@@]2(C)C1=O (racemic) [Example 335, (3aSR,10RS)-6-Chloro-2-(3-dimethylamino-propyl)-7-fluoro-10-(3-hydroxy-phenyl)-3a-methyl-3a,4,9,10-tetrahydro-2,9,10a-triaza-cyclopenta[b]fluorene-1,3-dione] | 39.8 to 251 nM |
| CCOc1ccc2[nH]c3c(c2c1)C[C@@]1(C)C(=O)N(CCCN2CC=CC2)C(=O)N1[C@@H]3c1cccc(O)c1 (racemic) [Example 222, (3aSR,10RS)-2-[3-(2,5-Dihydro-pyrrol-1-yl)-propyl]-6-ethoxy-10-(3-hydroxy-phenyl)-3a-methyl-3a,4,9,10-tetrahydro-2,9,10a-triaza-cyclopenta[b]fluorene-1,3-dione] | 39.8 to 251 nM |
| C[C@@]12Cc3c([nH]c4ccc(Cl)cc34)[C@@H](c3cccc(O)c3)N1C(=O)N(CCCN1CCCC1)C2=O (racemic) [Example 172, (3aSR,10RS)-6-Chloro-10-(3-hydroxy-phenyl)-3a-methyl-2-(3-pyrrolidin-1-yl-propyl)-3a,4,9,10-tetrahydro-2,9,10a-triaza-cyclopenta[b]fluorene-1,3-dione] | ≤ 39.8 nM |
| C[C@@]12Cc3c([nH]c4ccc(Cl)cc34)[C@@H](c3cccc(O)c3)N1C(=O)N(CCCN1CCCCCC1)C2=O (racemic) [Example 180, (3aSR,10RS)-2-(3-Azepan-1-yl-propyl)-6-chloro-10-(3-hydroxy-phenyl)-3a-methyl-3a,4,9,10-tetrahydro-2,9,10a-triaza-cyclopenta[b]fluorene-1,3-dione] | ≤ 39.8 nM |
| CC(C)CNCCN1C(=O)N2[C@H](c3cccc(O)c3)c3[nH]c4ccc(Br)cc4c3C[C@@]2(C)C1=O (racemic) [Example 391, (3aSR,10RS)-6-Bromo-10-(3-hydroxy-phenyl)-2-(2-isobutylamino-ethyl)-3a-methyl-3a,4,9,10-tetrahydro-2,9,10a-triaza-cyclopenta[b]fluorene-1,3-dione] | ≤ 39.8 nM |
| C=CCN(C)CCCN1C(=O)N2[C@H](c3cccc(O)c3)c3[nH]c4ccc(Br)cc4c3C[C@@]2(C)C1=O (racemic) [Example 371, (3aSR,10RS)-2-[3-(Allyl-methyl-amino)-propyl]-6-bromo-10-(3-hydroxy-phenyl)-3a-methyl-3a,4,9,10-tetrahydro-2,9,10a-triaza-cyclopenta[b]fluorene-1,3-dione] | ≤ 39.8 nM |
